Assay results from PMC8398766, “Do Small Molecules Activate the TrkB Receptor in the Same Manner as BDNF? Limitations of Published TrkB Low Molecular Agonists and Screening for Novel TrkB Orthosteric Agonists” (Pharmaceuticals, 2021).

Experiments:
exTrkB = target: T1, exTrkB (Homo sapiens, UniProt Q16620); test: MST binding affinity (Kd) determination
T1 construct: human TrkB receptor (exTrkB), residues 1−430, was cloned into the pCMV2 expression vector; made in house; host or cells: ExpiCHO-S cells
Method: The gene encoding the extracellular domain of the human TrkB receptor (exTrkB), residues 1−430, was cloned into the pCMV2 expression vector. Protein expression was performed in suspension-cultivated mammalian ExpiCHO-S cells using the ExpiFectamine (Thermo Scientific, Thermo Fisher Scientific, Waltham, MA, USA) transfection reagent. The secreted protein was purified using a four-step protocol. Clarified culture medium was precipitated with ammonium sulfate added to a final concentration of 1.5 M and centrifuged (235,000× g, 60 min at 4 °C). The supernatant after centrifugation was applied on a HiTrap Phenyl column (GE Healthcare, Chicago, IL, USA) equilibrated with buffer A (25 mM Tris, 1 mM DTT; pH 7.5) with 1.5 M ammonium sulfate. Bound proteins were eluted with a linear gradient of buffer A. The eluted proteins were dialyzed overnight in buffer A and loaded on a CaptoQ ImpRes column (GE Healthcare) equilibrated with buffer A with 50 mM NaCl. The bound proteins were eluted with a linear gradient of buffer A with 1 M NaCl. The fractions containing exTrkB protein were pooled, and MnCl2 and CaCl2 (1mM final concentration each) were added. The sample was purified on a HiTrap Con A 4B column (GE Healthcare) equilibrated with buffer B (25 mM Tris, 0.5 M NaCl, 1 mM MnCl2, 1 mM CaCl2; pH 7.5) and eluted with buffer C (25 mM Tris, 0.1 M NaCl, 0.4 M α-D-glucopyranoside; pH 6.5). To improve the protein recovery, buffer C flow was paused nine times during elution. The eluted fractions were concentrated and purified by size-exclusion chromatography on a HiLoad 16/600 Superdex 200 column (GE Healthcare) in buffer A with 0.5 M NaCl. The protein samples were concentrated to 1 mg/mL, and buffer was exchanged (PBS; pH 7.4). Samples were frozen in liquid nitrogen and stored at −80 °C. The protein purity was estimated by SDS–PAGE followed by Coomassie Brilliant Blue staining. The protein concentration was determined from the absorption at 280 nm using an UV NanoDrop 1000 spectrophotometer (Thermo Scientific).
The exTrkB was labeled with a Monolith Protein Labeling Kit RED-NHS 2nd Generation (NanoTemper Technologies GmbH, Munich, Germany) according to the manufacturer’s protocol. The labelling efficiency was always determined spectrophotometrically with NanoPhotometer® NP80 (Impel) in line with the manufacturer’s recommendations. Labelled exTrkB protein was aliquoted and stored at −80 °C to avoid repeated freeze–thaw cycles. Before analysis, the exTrkB protein was thawed on ice and diluted with MST buffer (50 mM Tris pH = 8; 150 mM NaCl; 10 mM MgCl2; 0.1% Tween20) to the desired concentration.
For primary screening (single-point MST experiments for signal amplitude determination), each of the 987 screened compounds were diluted in MST buffer + 0.1% Tween20 to a final concentration of 0.5 mM. The tested compounds were mixed with exTrkB solution (the final concentration of exTrkB was 20 nM) and centrifuged (10,000× g, 4 min at 4 °C) to eliminate protein and compound aggregates. Before loading to capillaries (Monolith NT.115 Capillaries, NanoTemper Technologies GmbH), the samples were incubated for 5 min at 25 °C and then placed into the MST apparatus (Monolith, NanoTemper Technologies GmbH). The experiments were performed using nano-blue excitation, LED light adjusted to 20% excitation power, and MST power set to medium, and the fluorescence signal during thermophoresis was detected after 30 s. Single-point MST experiments were performed by the determination of the amplitude signal between the unbound and bound state between the molecule and exTrkB, which was analyzed using the MO.Control Software version 1.6 (NanoTemper Technologies GmbH). A reference sample containing only exTrkB and the equivalent DMSO concentration (v/v) was included in each individual MST experiment. At least three technical replicates were prepared for each of the tested compounds. A binding affinity study was performed for 113 of the selected compounds at 16 concentration points. […]

[1] = Chemical stability pH 7.4; type: physicochemical; settings: pH = 7.4, 4 h
[2] = Metabolic stability in mouse liver microsomes; settings: for Metabolic stability in MLM (classification): compared with verapamil; for Clint MLM: 1 μM, phase I
[3] = pH 7.4
TrkB receptor = target: T2, TrkB receptor (Rattus norvegicus, UniProt Q63604); test: ELFI TrkB phosphorylation, orthosteric agonist mode, SN56 T48 cell line; type: cell-based; settings: 0.125–100 μM, 15 min
T2 construct: host or cells: SN56 T48 cell line
Method: The SN56 T48 cell line with stable overexpression of the TrkB receptor was purchased from Emory University (Atlanta, GA, USA) and cultivated according to the protocol described in Jang et al., 2010 [12]. The cell lines were cultivated with the following reagents: DMEM High Glucose, fetal bovine serum (FBS), Penicillin-Streptomycin Solution 100×, and Trypsin-EDTA 1×; all were purchased from Biowest, and G418 was from ThermoFisher Scientific. For the ELFI experiments, cells were seeded (8000/well) on a PDL-treated 96-well plate (BioCoat™, Corning Inc., Corning, NY, USA) and 6-well plate (400,000/well) for lysate collection and immunoblot analysis.
In the orthosteric agonist mode experiments, starved cells (5 h) were treated with compounds (0.125–100 μM; volume, 100 μL/well) or BDNF (0.01–10 nM; volume, 100 μL/well) dissolved in culture medium. In the allosteric modulation mode experiments, starved cells (5 h) were treated with final compound concentrations of 3, 10, and 30 μM; volume, 50 μL/well) in the presence of a rising concentration of BDNF (final concentration in well, 0.15–5 nM; volume, 50 μL/well). Corresponding treatment with DMSO (v/v) was performed for a control. Cells were treated for 15 min in both the orthosteric and allosteric modulation mode experiments.
The analysis of TrkB receptor activation was performed using the ELFI method adapted from Boltayev et al. (2017) with some modifications. After compound treatment, experiments were stopped by fixing cells with 10% buffered formalin (Kolchem, Lodz, Poland) for 20 min (volume, 100 μL/well). Afterwards, cells were permeabilized with washing buffer (TBS+ 0.1% Tween20) for 15 min, and endogenous peroxidases were quenched by 20 min of incubation with 1% H2O2 dissolved in TBS (each solution: volume, 100 μL/well). Epitopes were blocked with 10% BSA (Biowest) dissolved in washing buffer for 2 h (volume, 100 μL/well) and incubated with anti-pTrkB (Tyr707) primary antibody (Cell Signaling Technology, Danvers, MA, USA) diluted in washing buffer (1:500; overnight at 4 °C; volume, 100 μL/well). After repeated washing, cells were incubated with HRP-linked anti-rabbit antibody (Cell Signaling Technology) for 2 h (1:1000; RT; volume, 100 μL/well) and washed. The cells were then incubated with 100 μL of ImmunoCruz™ Western Blotting Luminol (Santa Cruz Biotechnology, Dallas, TX, USA) for 1 min in the dark, and the signals were measured using a microplate luminometer (VICTOR Light 1420-060, PerkinElmer®, Waltham, MA, USA). For non-specific binding, cells were treated, with the exception of primary antibody.

PAMPA = settings: for PAMPA: 10 μM, 4 h
[4] = Metabolic stability in human liver microsomes; settings: for Metabolic stability in HLM (classification): compared with verapamil; for Clint HLM: 1 μM, phase I
Caco-2 monolayer = test: Caco-2 passive permeability; settings: for Papp,AB: Caco-2, apical to basal; for Papp,AB / Papp,BA: 2 h; for Papp,BA: Caco-2, basal to apical
in vivo = type: in vivo, BALB/c mice; settings: mouse, in vivo
Method: The animals were obtained from the Center of Experimental Medicine (University of Bialystok, Bialystok, Poland) and housed under standard laboratory conditions. Mice had unlimited access to water and food. All the procedures were conducted according to the guidelines of the local ethical commission (appl no. 06/2019, perm. no 10/2019). […] Four animals per time point were sacrificed at 10 min, 30 min, 1 h, 2 h, and 4 h after per os administration and 5 min, 10 min, 30 min, 1 h, and 2 h after i.v. administration. The blood (0.5 mL) was collected by heart puncture using probes with anticoagulants (K2EDTA). Plasma samples were obtained by blood centrifugation (15 min, 3000× g at 23 °C). The whole brain was dissected from the skull and washed with cold 0.9% NaCl on ice. The left hemisphere was quickly frozen in liquid nitrogen and stored at −80 °C for further bioanalytical analysis. From the right hemisphere, the hippocampus and frontal cortex were isolated, weighed, and stored at −80 °C after freezing in liquid nitrogen. Isolated structures were homogenized in N-PER cocktail (10 μL for every 1 mg of tissue) using a hand homogenizer, and then processed as described in Section 4.3.3.
For bioanalytical evaluation, brain samples were homogenized in water (3 mL for every 1 g of brain tissue). Plasma and brain samples were then prepared by precipitating proteins and extracting analytes using acetonitrile with the addition of the internal standard: 150 μL of extraction solution was added to 50 μL of biological material, mixed for 1 min and centrifuged (12,900 RPM, 4 min, 4 °C), and the supernatant was collected for analysis. Standard solutions including calibration standards and quality control samples were prepared by spiking 45 μL of biological material with 5 μL of standard working solution, adding 150 μL of extraction solution, and then mixing, centrifuging, and collecting the supernatant for analysis. The concentrations of analytes in the plasma and brain samples were determined using a UPLC-MS/MS instrument (Agilent Technologies) and chromatographic columns (Agilent Zorbax Eclipse 50 × 2.1 mm; 1.7 μm).

[5] = Caco-2 passive permeability; settings: human, Caco-2, with 5 μM elacridar and 20 μM cyclosporine A

T2 sequence (Q63604 32-821): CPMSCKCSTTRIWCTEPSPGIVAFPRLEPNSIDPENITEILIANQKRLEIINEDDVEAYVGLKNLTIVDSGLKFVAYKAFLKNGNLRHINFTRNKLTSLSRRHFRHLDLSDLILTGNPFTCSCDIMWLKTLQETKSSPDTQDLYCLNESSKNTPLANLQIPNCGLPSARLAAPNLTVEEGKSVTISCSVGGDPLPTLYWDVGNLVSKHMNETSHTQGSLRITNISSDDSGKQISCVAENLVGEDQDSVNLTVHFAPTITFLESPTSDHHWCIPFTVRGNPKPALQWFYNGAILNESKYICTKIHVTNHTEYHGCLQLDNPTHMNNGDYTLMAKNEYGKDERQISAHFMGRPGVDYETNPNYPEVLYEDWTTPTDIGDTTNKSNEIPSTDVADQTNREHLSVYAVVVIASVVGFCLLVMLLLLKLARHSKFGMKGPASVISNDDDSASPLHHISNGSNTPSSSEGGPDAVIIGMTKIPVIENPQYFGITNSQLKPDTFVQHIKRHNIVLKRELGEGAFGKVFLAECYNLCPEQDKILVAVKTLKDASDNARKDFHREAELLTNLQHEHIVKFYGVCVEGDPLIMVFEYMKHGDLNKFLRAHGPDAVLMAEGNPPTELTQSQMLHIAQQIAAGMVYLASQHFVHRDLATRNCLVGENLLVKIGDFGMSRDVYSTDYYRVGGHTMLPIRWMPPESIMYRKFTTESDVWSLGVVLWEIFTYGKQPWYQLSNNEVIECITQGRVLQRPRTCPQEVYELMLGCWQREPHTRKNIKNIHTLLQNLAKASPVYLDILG
T1 sequence (Q16620 32-430): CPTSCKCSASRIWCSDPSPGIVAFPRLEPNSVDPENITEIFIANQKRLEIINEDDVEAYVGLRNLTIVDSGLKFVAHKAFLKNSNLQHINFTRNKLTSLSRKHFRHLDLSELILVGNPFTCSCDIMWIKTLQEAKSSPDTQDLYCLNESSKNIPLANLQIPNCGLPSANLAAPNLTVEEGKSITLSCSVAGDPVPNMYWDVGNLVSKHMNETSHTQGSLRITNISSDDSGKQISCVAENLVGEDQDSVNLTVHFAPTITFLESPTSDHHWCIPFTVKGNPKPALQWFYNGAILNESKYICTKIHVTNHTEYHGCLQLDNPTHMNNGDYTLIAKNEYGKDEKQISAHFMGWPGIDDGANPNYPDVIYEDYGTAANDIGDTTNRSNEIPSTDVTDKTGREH

| Molecule | Binding to the exTrkB receptor (exTrkB) | Chemical Stability [% of Degradation] [1] | Metabolic stability in MLM (classification) [2] | Orthosteric activity (induction of TrkB phosphorylation) (TrkB receptor) | PAMPA (PAMPA) | Metabolic stability in HLM (classification) [4] | Clint MLM [2] [μL·min^−1·mgprotein^−1] | Papp,AB (Caco-2 monolayer) | Papp,BA (Caco-2 monolayer) | Clint HLM [4] [μL·min^−1·mgprotein^−1] | also measured |
| --- | --- | --- | --- | --- | --- | --- | --- | --- | --- | --- | --- |
| NCCCC[C@H](NC(=O)[C@H](CO)NC(=O)CCC(=O)O)C(=O)NCCCCCCNC(=O)[C@H](CCCCN)NC(=O)[C@H](CO)NC(=O)CCC(=O)O [GSB-106, [OH-Suc-Ser-Lys-NH-(CH2)3-]2] | not observed | Stable | instability of this compound in the experimental system | did not observe any orthosteric activity | 0.85 10^−6·cm/s | instability of this compound in the experimental system | – | – | – | – | Kinetic Solubility [3]: 152.7 µM |
| OCCN(CCO)c1ccc(C(c2ccc(Cl)cc2)c2ccc(N(CCO)CCO)cc2)cc1 [LM22-B10] | not observed | 4.18% | stable | did not observe any orthosteric activity | 2.36 10^−6·cm/s | moderately stable | 4.8 | 6.47 10^−6·cm/s | 4.97 10^−6·cm/s | 29 | Kd (exTrkB; non-binding compounds given as 0): 83 µM |
| 7-hydroxy-8-methoxyflavone (7H8M-flavone) and 8-hydroxy-7-methoxyflavone (8H7M-flavone) [7H8M-flavone 8H7M-flavone] | – | – | – | – | – | – | – | – | – | – | C brain, individual mice (in vivo; 50 mg/kg): < LLQ; C brain, individual mice (in vivo; iv, 1 mg/kg): < LLQ; C plasma, individual mice (in vivo; iv, 1 mg/kg): < LLQ; Time of maximal plasma concentration (in vivo; iv, 1 mg/kg): 5 min; Time of maximal plasma concentration (in vivo; po, 50 mg/kg): 10 min |
| CN(C)c1ccc(-c2cc(=O)c3ccc(O)c(O)c3o2)cc1 [4′-dimethylamino-7,8-DHF] | not observed | 1.31% | highly unstable | did not observe any orthosteric activity | 15.5 10^−6·cm/s | highly unstable | 365.1 | 15.61 10^−6·cm/s | 9.03 10^−6·cm/s | 175.7 | Permeability in Caco-2 system (good permeability) (Caco-2 monolayer): > 10^−6 cm/s; Permeability in PAMPA assay (good permeability) (PAMPA): > 10^−6 cm/s |
| COc1ccc(-c2cc3cccc(O)c3c(=O)o2)cc1 [Isocumarin, 8-hydroxy-3-(4′-methoxyphenyl)-isocumarin] | not observed | Stable | highly unstable | did not observe any orthosteric activity | 0.22 10^−6·cm/s | highly unstable | – | – | – | – | microsomal CLint at 1 μM ([2]; mouse, liver microsomes): 407 µL/min/mg; Papp A→B at 2 h [5]: 1.6 ×10⁻⁶ cm/s; Papp B→A at 2 h [5]: 2.18 ×10⁻⁶ cm/s; microsomal CLint at 1 μM ([4]; human, liver microsomes): 781 µL/min/mg |
